According to patent publication US8829185B2 (Bayer HealthCare LLC, priority 2005, dated 2014):

Target: T1, FGFR1-GST (Homo sapiens, UniProt P11362)
T1 construct: GST; made in house
Test: FGFR-1 TR-FRET biochemical assay
Description: FGFR-1 TR-FRET Biochemical Assay
The FGFR-1 Assay was performed on half well 96-well opaque plates (Costar 3915) in a LANCE format. LANCE is a homogenous time resolved fluormetry based application available through Perkin Elmer. For this assay, 50 uL reactions were set up using: 0.6 uM ATP (Sigma), 25 nM poly GT-biotin (CIS BIO International), 2 nM Eu-labelled phospho-Tyr Ab (PY20 PerkinElmer), 10 nM Streptavidin-APC (Perkin Elmer), 5 nM FGFR1-GST (generated by DRT, Bayer Healthcare), 1% DMSO, 50 mM HEPES pH 7.5, 10 mM MgCl2, 0.1 mM EDTA, 0.015% Brij, 0.1 mg/ml BSA, 0.1% B-mercaptoethanol. All reactions were initiated with the addition of enzyme and were left to incubate for one hour at room temperature. Time-resolved fluorescence was then read on a Perkin Elmer VictorV Multilabel counter. The reading protocol uses an excitation wavelength at 340 nm and emission reads at both 615 and 665 nm. Signal was calculated as a ratio: (Fluorescence at 665 nm/Fluorescence at […])*10000 for each well. The background control used for this assay is the signal produced with all assay components excluding ATP. For IC50 generation, compounds were added prior to the enzyme initiation. A 50-fold stock plate was made with compounds serially diluted 1:5 in a 50% DMSO/50% dH2O solution. A 1 μL addition of the stock to the assay wells gave final compound concentrations ranging from 10 μM −0.128 nM in 1% DMSO. The data were expressed as percent inhibition: % inhibition=100−((Signal with inhibitor-background)/(Signal without inhibitor−background))*100.

T1 sequence (P11362 22-822): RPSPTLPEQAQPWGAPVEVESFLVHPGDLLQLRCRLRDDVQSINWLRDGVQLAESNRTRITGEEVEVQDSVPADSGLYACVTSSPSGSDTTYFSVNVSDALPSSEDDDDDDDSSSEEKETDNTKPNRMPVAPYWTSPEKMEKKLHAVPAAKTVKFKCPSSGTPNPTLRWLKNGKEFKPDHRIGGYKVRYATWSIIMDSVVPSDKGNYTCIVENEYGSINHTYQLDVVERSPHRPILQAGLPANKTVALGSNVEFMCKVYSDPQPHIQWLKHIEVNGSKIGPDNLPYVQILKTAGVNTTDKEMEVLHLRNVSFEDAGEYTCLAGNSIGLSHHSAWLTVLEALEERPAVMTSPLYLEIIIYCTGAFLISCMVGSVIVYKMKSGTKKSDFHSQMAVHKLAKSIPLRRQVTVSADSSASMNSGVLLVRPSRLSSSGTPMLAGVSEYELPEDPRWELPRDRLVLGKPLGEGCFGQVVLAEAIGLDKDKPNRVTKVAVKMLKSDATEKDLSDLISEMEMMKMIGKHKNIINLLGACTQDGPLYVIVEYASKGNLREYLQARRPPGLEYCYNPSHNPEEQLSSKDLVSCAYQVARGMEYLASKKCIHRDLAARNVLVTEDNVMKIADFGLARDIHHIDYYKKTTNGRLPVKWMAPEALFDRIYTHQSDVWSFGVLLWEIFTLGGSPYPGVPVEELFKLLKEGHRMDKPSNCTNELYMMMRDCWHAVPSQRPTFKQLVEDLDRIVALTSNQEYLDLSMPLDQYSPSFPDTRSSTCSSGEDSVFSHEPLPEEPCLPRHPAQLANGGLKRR

Row | IC50 (bounds given in nM) [nM] | IC50 (upper bound in μM) [nM] | Structure (SMILES)
1 | 10 to 100 |  | COCc1c(-c2ccc(NC(=O)Nc3cc(C(F)(F)F)ccc3F)cc2)c2c(N)ncnn2c1COC [Example 24, N-{4-[4-amino-6,7-bis(methoxymethyl)pyrrolo[2,1-f]-[1,2,4]triazin-5-yl]phenyl}-N′-[2-fluoro-5-(trifluoromethyl)phenyl]urea]
2 | < 10 |  | Cc1c(-c2ccc(NC(=O)Nc3cc(C(F)(F)F)ccc3F)cc2)c2c(N)ncnn2c1CN1CCCOCC1 [Example 117, N-{4-[4-amino-6-methyl-7-(1,4-oxazepan-4-ylmethyl)pyrrolo[2,1-f][1,2,4]triazin-5-yl]phenyl}-N′-[2-fluoro-5-(trifluoromethyl)phenyl]urea]
3 | < 10 |  | N#CCc1c(-c2ccc(NC(=O)Nc3cc(C(F)(F)F)ccc3F)cc2)c2c(N)ncnn2c1CN1CCOCC1 [Example 68, N-{4-[4-amino-6-(cyanomethyl)-7-(morpholin-4-ylmethyl)-pyrrolo[2,1-f][1,2,4]triazin-5-yl]phenyl}-N′-[2-fluoro-5-(trifluoromethyl)-phenyl]urea]
4 | < 10 |  | COCc1c(-c2ccc(NC(=O)Nc3cc(C(F)(F)F)ccc3F)cc2)c2c(N)ncnn2c1CN1CCNC(=O)C1 [Example 19, N-(4-{4-amino-6-(methoxymethyl)-7-[(3-oxopiperazin-1-yl)methyl]pyrrolo[2,1-f][1,2,4]triazin-5-yl}phenyl)-N′-[2-fluoro-5-(trifluoromethyl)phenyl]urea]
5 | > 100 | < 1000 | COCc1c(-c2ccc(NC(=O)Nc3cc(C(F)(F)F)ccc3F)cc2)c2c(N)ncnn2c1C#N [Example 11, N-4-[4-amino-7-cyano-6-(methoxy-methyl)pyrrolo[2,1-f][1,2,4]triazin-5-yl]phenyl-N′-[2-fluoro-5-(trifluoromethyl)-phenyl]urea]
6 | 10 to 100 |  | N#Cc1c(C(=O)NCC(F)(F)F)c(-c2ccc(NC(=O)Nc3cc(C(F)(F)F)ccc3F)cc2)c2c(N)ncnn12 [Example 5, 4-amino-7-cyano-5-4-[([2-fluoro-5-(trifluoromethyl)phenyl]aminocarbonyl)amino]phenyl-N-(2,2,2-trifluoroethyl)-pyrrolo[2,1-f][1,2,4]triazine-6-carboxamide]
7 | 10 to 100 |  | COCCNCc1c(COC)c(-c2ccc(NC(=O)Nc3cc(C(F)(F)F)ccc3F)cc2)c2c(N)ncnn12 [Example 15, N-{4-[4-amino-7-{[(2-methoxyethyl)amino]methyl}-6-(methoxymethyl)pyrrolo[2,1-f][1,2,4]triazin-5-yl]phenyl}-N′-[2-fluoro-5-(trifluoromethyl)phenyl]urea]
8 | 10 to 100 |  | CN1CCN(Cc2c(C#N)c(-c3ccc(NC(=O)Nc4cc(C(F)(F)F)ccc4F)cc3)c3c(N)ncnn23)CC1 [Example 55, N-(4-4-amino-6-cyano-7-[(4-methylpiperazin-1-yl)methyl]-pyrrolo[2,1-f][1,2,4]triazin-5-ylphenyl)-N′-[2-fluoro-5-(trifluoromethyl)-phenyl]urea]
9 | 10 to 100 |  | COCc1c(-c2ccc(NC(=O)Nc3cc(C(F)(F)F)ccc3F)cc2)c2c(N)ncnn2c1CN1CCN(C(C)=O)CC1 [Example 21, N-{4-[7-[(4-acetylpiperazin-1-yl)methyl]-4-amino-6-(methoxymethyl)pyrrolo[2,1-f][1,2,4]triazin-5-yl]phenyl}-N′-[2-fluoro-5-(trifluoromethyl)phenyl]urea]

Continued, compound first:

Row | Structure (SMILES) | IC50 (bounds given in nM) [nM] | IC50 (upper bound in μM) [nM]
10 | Nc1ncnn2c(CN3CCOCC3)c(-c3cnco3)c(-c3ccc(NC(=O)Nc4cc(C(F)(F)F)ccc4F)cc3)c12 [Example 26, N-4-[4-amino-7-(morpholin-4-ylmethyl)-6-(1,3-oxazol-5-yl)pyrrolo[2,1-f][1,2,4]triazin-5-yl]phenyl-N′-[2-fluoro-5-(trifluoromethyl)phenyl]urea] | < 10 | 
11 | CS(=O)(=O)N1CCN(Cc2c(CC#N)c(-c3ccc(NC(=O)Nc4cc(C(F)(F)F)ccn4)cc3)c3c(N)ncnn23)CC1 [Example 67, N-[4-(4-amino-6-(cyanomethyl)-7-{[4-(methylsulfonyl)piperazin-1-yl]methyl}pyrrolo[2,1-f][1,2,4]triazin-5-yl)phenyl]-N′-[4-(trifluoromethyl)pyridin-2-yl]urea] | 10 to 100 | 
12 | N#CCc1c(-c2ccc(NC(=O)Nc3cc(C(F)(F)F)ccn3)cc2)c2c(N)ncnn2c1CN1CCNC(=O)C1 [Example 66, N-(4-{4-amino-6-(cyanomethyl)-7-[(3-oxopiperazin-1-yl)methyl]-pyrrolo[2,1-f][1,2,4]triazin-5-yl}phenyl)-N′-[4-(trifluoromethyl)pyridin-2-yl]urea] | < 10 | 
13 | Nc1ncnn2c(CN3CCOCC3)c(C(F)F)c(-c3ccc(NC(=O)Nc4cc(C(F)(F)F)ccn4)c(F)c3)c12 [Example 116, N-{4-[4-amino-6-(difluoromethyl)-7-(morpholin-4-ylmethyl)-pyrrolo[2,1-f][1,2,4]triazin-5-yl]-2-fluorophenyl}-N′-[4-(trifluoromethyl)pyridin-2-yl]urea] | < 10 | 
14 | CC(O)c1c(-c2ccc(NC(=O)Nc3cc(C(F)(F)F)ccc3F)cc2)c2c(N)ncnn2c1CN1CCOCC1 (stereo not shown) [Example 104, N-4-[4-amino-6-(1-hydroxyethyl)-7-(morpholin-4-ylmethyl)-pyrrolo[2,1-f][1,2,4]triazin-5-yl]phenyl-N′-[2-fluoro-5-(trifluoromethyl)-phenyl]urea] | 10 to 100 | 
15 | Nc1ncnn2c(CN3CCOCC3)c(Cl)c(-c3ccc(NC(=O)Nc4cc(C(F)(F)F)ccn4)c(F)c3)c12 [Example 158, N-{4-[4-amino-6-chloro-7-(morpholin-4-ylmethyl)pyrrolo[2,1-f][1,2,4]triazin-5-yl]-2-fluorophenyl}-N′-[4-(trifluoromethyl)pyridin-2-yl]urea] | < 10 | 
16 | Nc1ncnn2c(CN3CCOCC3)c(Cl)c(-c3ccc(NC(=O)Nc4cccc(C(F)(F)F)c4)c(Cl)c3)c12 [Example 160, N-{4-[4-amino-6-chloro-7-(morpholin-4-ylmethyl)pyrrolo[2,1-f][1,2,4]triazin-5-yl]-2-chlorophenyl}-N′-[3-(trifluoromethyl)phenyl]urea] | 10 to 100 | 
17 | COCCN(C)Cc1c(-c2ccc(NC(=O)Nc3cc(C(F)(F)F)ccc3F)cc2)c2c(N)ncnn2c1CN1CCOCC1 [Example 110, N-4-[4-amino-6-[(2-methoxyethyl)(methyl)-amino]methyl-7-(morpholin-4-ylmethyl)pyrrolo[2,1-f][1,2,4]triazin-5-yl]phenyl-N′-[2-fluoro-5-(trifluoromethyl)phenyl]urea] | > 100 | < 1000
18 | CON(C)C(=O)c1c(-c2ccc(NC(=O)Nc3cc(C(F)(F)F)ccn3)cc2)c2c(N)ncnn2c1CN1CCOCC1 [Example 97, 4-amino-N-methoxy-N-methyl-7-(morpholin-4-ylmethyl)-5-{4-[({[4-(trifluoromethyl)pyridin-2-yl]amino}carbonyl)-amino]phenyl}pyrrolo[2,1-f][1,2,4]triazine-6-carboxamide] | > 100 | < 1000
19 | N#CCc1c(-c2ccc(NC(=O)Nc3cc(C(F)(F)F)ccc3F)c(F)c2)c2c(N)ncnn2c1CN1CCS(=O)(=O)CC1 [Example 79, N-(4-{4-amino-6-(cyanomethyl)-7-[(1,1-dioxidothiomorpholin-4-yl)methyl]pyrrolo[2,1-f][1,2,4]triazin-5-yl}-2-fluorophenyl)-N′-[2-fluoro-5-(trifluoromethyl)phenyl]urea] | < 10 | 
20 | Nc1ncnn2c(CN3CCOCC3)c(C(=O)C3CC3)c(-c3ccc(NC(=O)Nc4cc(C(F)(F)F)ccn4)cc3)c12 [Example 89, N-{4-[4-amino-6-(cyclopropylcarbonyl)-7-(morpholin-4-ylmethyl)pyrrolo[2,1-f][1,2,4]triazin-5-yl]phenyl}-N′-[4-(trifluoromethyl)pyridin-2-yl]urea] | 10 to 100 | 
21 | Nc1ncnn2c(CN3CCOCC3)c(Cl)c(-c3cc(F)c(NC(=O)Nc4cc(C(F)(F)F)ccc4F)cc3F)c12 [Example 156, N-{4-[4-amino-6-chloro-7-(morpholin-4-ylmethyl)pyrrolo[2,1-f][1,2,4]triazin-5-yl]-2,5-difluorophenyl}-N′-[2-fluoro-5-(trifluoromethyl)-phenyl]urea] | > 100 | < 1000
22 | N#CCc1c(-c2ccc(NC(=O)Nc3cc(C(F)(F)F)ccc3Cl)c(F)c2)c2c(N)ncnn2c1CN1CCS(=O)(=O)CC1 [Example 83, N-(4-{4-amino-6-(cyanomethyl)-7-[(1,1-dioxidothiomorpholin-4-yl)methyl]pyrrolo[2,1-f][1,2,4]triazin-5-yl}-2-fluorophenyl)-N′-[2-chloro-5-(trifluoromethyl)phenyl]urea] | < 10 | 
23 | CCOC(=O)c1c(-c2ccc(NC(=O)Nc3cc(C(F)(F)F)ccn3)cc2)c2c(N)ncnn2c1-c1cccc(F)c1 [Example 1, Ethyl 4-amino-7-(3-fluorophenyl)-5-{4-[({[4-(trifluoromethyl)pyridin-2-yl]amino}carbonyl)amino]phenyl}-pyrrolo[2,1-f][1,2,4]triazine-6-carboxylate] | 10 to 100 | 
24 | CC(=O)c1c(-c2ccc(NC(=O)Nc3cc(C(F)(F)F)ccc3F)cc2)c2c(N)ncnn2c1CN1CCOCC1 [Example 105, N-4-[6-acetyl-4-amino-7-(morpholin-4-ylmethyl)pyrrolo[2,1-f][1,2,4]triazin-5-yl]phenyl-N′-[2-fluoro-5-(trifluoromethyl)phenyl]urea] | < 10 | 
